# Entries after “also recorded” stand apart in the source; their conditions may differ. Activity calls are given as the source filed them. The rule behind the calls is not given here.
# System: CCRIS mutagenicity, Ames/micronucleus/aberration tests
# Test: CCRIS mutagenicity studies
# [1] = Test System: AMES SALMONELLA TYPHIMURIUM, Strain/Indicator: TA98, Metabolic Activation: NONE, Method: PREINCUBATION
# [2] = Test System: AMES SALMONELLA TYPHIMURIUM, Strain/Indicator: TA98, Metabolic Activation: RAT LIVER S-9, PHENOBARBITAL AND BETA-NAPHTHOFLAVONE, Method: PREINCUBATION
# [3] = Test System: AMES SALMONELLA TYPHIMURIUM, Strain/Indicator: TA100, Metabolic Activation: NONE, Method: PREINCUBATION
# [4] = Test System: AMES SALMONELLA TYPHIMURIUM, Strain/Indicator: TA100, Metabolic Activation: RAT LIVER S-9, PHENOBARBITAL AND BETA-NAPHTHOFLAVONE, Method: PREINCUBATION
# [5] = Test System: AMES SALMONELLA TYPHIMURIUM, Strain/Indicator: TA1535, Metabolic Activation: NONE, Method: PREINCUBATION
# [6] = Test System: AMES SALMONELLA TYPHIMURIUM, Strain/Indicator: TA1535, Metabolic Activation: RAT LIVER S-9, PHENOBARBITAL AND BETA-NAPHTHOFLAVONE, Method: PREINCUBATION
# [7] = Test System: AMES SALMONELLA TYPHIMURIUM, Strain/Indicator: TA1537, Metabolic Activation: NONE, Method: PREINCUBATION
# [8] = Test System: AMES SALMONELLA TYPHIMURIUM, Strain/Indicator: TA1537, Metabolic Activation: RAT LIVER S-9, PHENOBARBITAL AND BETA-NAPHTHOFLAVONE, Method: PREINCUBATION
# [9] = Test System: AMES SALMONELLA TYPHIMURIUM, Strain/Indicator: TA100, Metabolic Activation: NONE, Method: STANDARD PLATE
compound,measurement,setting,value
Brc1c(Br)c(Br)c(Oc2c(Br)c(Br)c(Br)c(Br)c2Br)c(Br)c1Br,mutagenic call,"End Point: IN VITRO CHROMOSOMAL ABERRATIONS, Test System: CHO CELLS, Metabolic Activation: NONE",inactive; negative; precipitation occurred at 160 and 500 ug/ml; also recorded: inactive; negative; precipitation occurred at 250 and 500 ug/ml
same,mutagenic call,"End Point: IN VITRO CHROMOSOMAL ABERRATIONS, Test System: CHO CELLS, Metabolic Activation: RAT, LIVER, S-9, AROCLOR 1254",inactive; negative; precipitation occurred at 250 and 500 ug/ml
same,mutagenic call,"Test System: AMES SALMONELLA TYPHIMURIUM, Strain/Indicator: TA98, Metabolic Activation: HAMSTER, LIVER, S-9, AROCLOR 1254, Method: PREINCUBATION",inactive; negative
same,mutagenic call,[1],inactive; negative
same,mutagenic call,[2],inactive; negative
same,mutagenic call,"Test System: AMES SALMONELLA TYPHIMURIUM, Strain/Indicator: TA98, Metabolic Activation: RAT, LIVER, S-9, AROCLOR 1254, Method: PREINCUBATION",inactive; negative
same,mutagenic call,"Test System: AMES SALMONELLA TYPHIMURIUM, Strain/Indicator: TA100, Metabolic Activation: HAMSTER, LIVER, S-9, AROCLOR 1254, Method: PREINCUBATION",inactive; negative
same,mutagenic call,[3],inactive; negative
same,mutagenic call,[4],inactive; negative
same,mutagenic call,"Test System: AMES SALMONELLA TYPHIMURIUM, Strain/Indicator: TA100, Metabolic Activation: RAT, LIVER, S-9, AROCLOR 1254, Method: PREINCUBATION",inactive; negative
same,mutagenic call,"Test System: AMES SALMONELLA TYPHIMURIUM, Strain/Indicator: TA1535, Metabolic Activation: HAMSTER, LIVER, S-9, AROCLOR 1254, Method: PREINCUBATION",inactive; negative
same,mutagenic call,[5],inactive; negative
same,mutagenic call,[6],inactive; negative
same,mutagenic call,"Test System: AMES SALMONELLA TYPHIMURIUM, Strain/Indicator: TA1535, Metabolic Activation: RAT, LIVER, S-9, AROCLOR 1254, Method: PREINCUBATION",inactive; negative
same,mutagenic call,"Test System: AMES SALMONELLA TYPHIMURIUM, Strain/Indicator: TA1537, Metabolic Activation: HAMSTER, LIVER, S-9, AROCLOR 1254, Method: PREINCUBATION",inactive; negative
same,mutagenic call,[7],inactive; negative
same,mutagenic call,[8],inactive; negative
same,mutagenic call,"Test System: AMES SALMONELLA TYPHIMURIUM, Strain/Indicator: TA1537, Metabolic Activation: RAT, LIVER, S-9, AROCLOR 1254, Method: PREINCUBATION",inactive; negative
same,mutagenic call,"Test System: CHO/HGPRT, Strain/Indicator: CHO/GIEMSA, Metabolic Activation: NONE, Method: STANDARD PLATE",inactive; negative
same,mutagenic call,"Test System: CHO/HGPRT, Strain/Indicator: CHO/GIEMSA, Metabolic Activation: RAT, LIVER, S-9, AROCLOR 1254, Method: STANDARD PLATE",inactive; negative
same,mutagenic call,"Test System: E.COLI, Strain/Indicator: WP2UVRA/PKM101, Metabolic Activation: NONE, Method: PREINCUBATION",inactive; negative
same,mutagenic call,"Test System: E.COLI, Strain/Indicator: WP2UVRA/PKM101, Metabolic Activation: RAT LIVER S-9, PHENOBARBITAL AND BETA-NAPHTHOFLAVONE, Method: PREINCUBATION",inactive; negative
same,mutagenic call,"Test System: MOUSE LYMPHOMA, Strain/Indicator: L5178Y (TK+/TK-), Metabolic Activation: NONE, Method: SUSPENSION/PLATE",inactive; negative
same,mutagenic call,"Test System: MOUSE LYMPHOMA, Strain/Indicator: L5178Y (TK+/TK-), Metabolic Activation: RAT, LIVER, S-9, AROCLOR 1254, Method: SUSPENSION/PLATE",inactive; negative
CS(=O)(=O)N1C2c3ccccc3-c3ccccc3C21 (configuration not stated),mutagenic call,[9],active; positive
same,mutagenic call,"Test System: CHINESE HAMSTER V-79, Strain/Indicator: V-79/6-THIOGUANINE, Metabolic Activation: NONE, Method: STANDARD PLATE",inactive; negative
[O]=[W](=[O])([OH])[OH],mutagenic call,[1],inactive; negative
same,mutagenic call,[2],inactive; negative
same,mutagenic call,[3],inactive; negative
same,mutagenic call,[4],inactive; negative
same,mutagenic call,[5],inactive; negative
same,mutagenic call,[6],inactive; negative
same,mutagenic call,[7],inactive; negative
same,mutagenic call,[8],inactive; negative
same,mutagenic call,"Test System: AMES SALMONELLA TYPHIMURIUM, Strain/Indicator: TA1538, Metabolic Activation: NONE, Method: PREINCUBATION",inactive; negative
same,mutagenic call,"Test System: AMES SALMONELLA TYPHIMURIUM, Strain/Indicator: TA1538, Metabolic Activation: RAT LIVER S-9, PHENOBARBITAL AND BETA-NAPHTHOFLAVONE, Method: PREINCUBATION",inactive; negative
same,mutagenic call,"Test System: E.COLI, Strain/Indicator: WP2UVRA, Metabolic Activation: NONE, Method: PREINCUBATION",inactive; negative
same,mutagenic call,"Test System: E.COLI, Strain/Indicator: WP2UVRA, Metabolic Activation: RAT LIVER S-9, PHENOBARBITAL AND BETA-NAPHTHOFLAVONE, Method: PREINCUBATION",inactive; negative
O=S(=O)(c1cc(Cl)cc(Cl)c1O)c1cc(Cl)cc(Cl)c1O,mutagenic call,"Test System: AMES SALMONELLA TYPHIMURIUM, Strain/Indicator: TA97, Metabolic Activation: NONE, Method: STANDARD PLATE",inactive; negative
same,mutagenic call,"Test System: AMES SALMONELLA TYPHIMURIUM, Strain/Indicator: TA97, Metabolic Activation: RAT, LIVER, S-9, AROCLOR 1254, Method: STANDARD PLATE",inactive; negative
same,mutagenic call,"Test System: AMES SALMONELLA TYPHIMURIUM, Strain/Indicator: TA98, Metabolic Activation: NONE, Method: STANDARD PLATE",inactive; negative
same,mutagenic call,"Test System: AMES SALMONELLA TYPHIMURIUM, Strain/Indicator: TA98, Metabolic Activation: RAT, LIVER, S-9, AROCLOR 1254, Method: STANDARD PLATE",inactive; negative
same,mutagenic call,[9],inactive; negative
same,mutagenic call,"Test System: AMES SALMONELLA TYPHIMURIUM, Strain/Indicator: TA100, Metabolic Activation: RAT, LIVER, S-9, AROCLOR 1254, Method: STANDARD PLATE",inactive; negative
same,mutagenic call,"Test System: AMES SALMONELLA TYPHIMURIUM, Strain/Indicator: TA102, Metabolic Activation: NONE, Method: STANDARD PLATE",inactive; negative
same,mutagenic call,"Test System: AMES SALMONELLA TYPHIMURIUM, Strain/Indicator: TA102, Metabolic Activation: RAT, LIVER, S-9, AROCLOR 1254, Method: STANDARD PLATE",inactive; negative
CC(=O)CCN(C)N=O,mutagenic call,"Test System: CHINESE HAMSTER V-79, Strain/Indicator: V-79/OUABAIN, Metabolic Activation: HAMSTER, HEPATOCYTES, Method: CELL-MEDIATED",active; positive
CC1=C(O)C(=O)C(O)CO1 (configuration not stated),mutagenic call,[3],active; positive
same,mutagenic call,"Test System: AMES SALMONELLA TYPHIMURIUM, Strain/Indicator: TA100, Metabolic Activation: S-9, Method: PREINCUBATION",active; positive
O[C@@H]1[C@H]2O[C@H]2c2c(ccc3cc4ccc5ccccc5c4nc23)[C@H]1O,mutagenic call,[1],active; positive
same,mutagenic call,[3],active; positive
same,mutagenic call,"Test System: CHINESE HAMSTER V-79, Strain/Indicator: V-79/8-AZAGUANINE, Metabolic Activation: NONE, Method: STANDARD PLATE",active; positive

# From PubChem BioAssay AID1259407 (Chemical Carcinogenesis Research Information System (CCRIS), 2018)
